Assay results reported in PMC2248166, “Quantitative peptide binding motifs for 19 human and mouse MHC class I molecules derived using positional scanning combinatorial peptide libraries” (Immunome Research, 2008).

How the values were obtained:
HLA B*0801 = HLA B*0801 (Homo sapiens, UniProt P01889, A93T/A95T/D138N/E176V/E187T/K202T/Q94N/R180D/S35A/V36M/Y33D/Y91F); assay: biochemical; type: binding
H-2 D^b = H-2 D^b (Mus musculus, UniProt P01899); type: binding
HLA A*3201 = HLA A*3201 (Homo sapiens, UniProt P04439, A270S/D101S/D185E/E176V/E277Q/F133L/G103R/G107R/G231S/H175R/I121M/I218V/I322F/K168Q/L105A/L300P/L318F/M331R/P208A/P217A/Q94H/R106L/R138Q/S129P/T104I/T323A/T345S/V100E/V321M/V358M); assay: biochemical; type: binding
H-2 K^k = H-2 K^k (Mus musculus, UniProt P04223); type: binding
Sequence of H-2 K^k (P01887 21-119): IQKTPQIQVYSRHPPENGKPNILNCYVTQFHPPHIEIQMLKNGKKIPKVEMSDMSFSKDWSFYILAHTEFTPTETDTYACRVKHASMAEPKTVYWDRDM
Sequence of H-2 K^k (P04223 22-369): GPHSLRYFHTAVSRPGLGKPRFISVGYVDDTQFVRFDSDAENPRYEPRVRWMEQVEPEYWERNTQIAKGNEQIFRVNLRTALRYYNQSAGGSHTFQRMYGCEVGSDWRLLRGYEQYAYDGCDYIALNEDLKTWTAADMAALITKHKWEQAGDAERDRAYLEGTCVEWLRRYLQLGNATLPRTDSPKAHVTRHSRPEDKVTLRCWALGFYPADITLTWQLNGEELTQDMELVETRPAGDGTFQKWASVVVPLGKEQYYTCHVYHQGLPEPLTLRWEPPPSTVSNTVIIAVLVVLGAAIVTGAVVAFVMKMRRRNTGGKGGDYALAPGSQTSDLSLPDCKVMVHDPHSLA

HLA A*0201 = HLA A*0201 (Homo sapiens, UniProt P04439, D140Y/D185E/D98H/E176V/E277Q/G131W/G231S/I119V/I121R/I166T/I218V/L300P/L318F/N151K/N90K/P208A/P217A/Q86G/Q94H/R138H/R169H/T345S); conditions: positional scanning combinatorial 9-mer library; normalized to 1.0 for the best residue at each position
HLA B*5801 = HLA B*5801 (Homo sapiens, UniProt P01889, A329T/C349S/D201E/D98Y/E176V/E187L/E204Q/E69T/G107R/I218V/I90N/K202T/L105A/L119I/N104I/N87E/Q89R/Q94S/R106L/R155S/R180L/R86G/S101N/S121R/S35A/S48A/T118I/V127L/V306I/V36M/Y140S/Y91M); type: binding
HLA B*1501 = HLA B*1501 (Homo sapiens, UniProt P01889, A329T/A93T/A95T/C349S/D201E/D98Y/E187L/E204Q/E69M/E70A/K202T/N87E/Q94N/R155S/R180W/S121R/S35A/S48A/V306I/V36M/Y140S/Y91S); assay: biochemical; type: binding
HLA B*5301 = HLA B*5301 (Homo sapiens, UniProt P01889, A329T/A93T/A95T/C349S/D201E/D98Y/E176V/E187L/E204Q/E69T/G107R/I218V/K202T/L105A/L119I/N104I/Q94N/R106L/R155S/R180L/S101N/S121R/S35A/S48A/T118I/V127L/V306I/V36M/Y140S/Y91F); type: binding
HLA B*3501 = HLA B*3501 (Homo sapiens, UniProt P01889, A329T/A93T/A95T/C349S/D201E/D98Y/E176V/E187L/E204Q/E69T/I218V/K202T/L119I/Q94N/R155S/R180L/S121R/S35A/S48A/T118I/V127L/V306I/V36M/Y140S/Y91F); type: binding
HLA B*2705 = HLA B*2705 (Homo sapiens, UniProt P01889, D138H/D201E/E176V/E204Q/G107R/H137Y/K202T/N104T/N87E/Q56L/Q94K/R106L/R155S/R180L/S101D/S121N/S48T/Y140D/Y33H/Y91C); type: binding; conditions: positional scanning combinatorial 9-mer library; normalized to 1.0 for the best residue at each position
HLA B*1503 = HLA B*1503 (Homo sapiens, UniProt P01889, A329T/A93T/A95T/C349S/D201E/D98Y/E187L/E204Q/K202T/N87E/Q94N/R155S/R180L/S121R/S35A/V306I/V36M/Y140S/Y91S); assay: biochemical; type: binding
HLA B*5401 = HLA B*5401 (Homo sapiens, UniProt P01889, A329T/C349S/D138N/D201E/E176V/E187T/E204Q/E69G/I76V/K202T/L119W/R155S/R180L/S121T/S35A/S48A/V127L/V306I/V36M/Y140L); type: binding
HLA B*0702 = HLA B*0702 (Homo sapiens, UniProt P01889); type: binding; conditions: positional scanning combinatorial 9-mer library; normalized to 1.0 for the best residue at each position
HLA B*5101 = HLA B*5101 (Homo sapiens, UniProt P01889, A329T/A93T/A95T/C349S/D138N/D201E/D98Y/E187L/E204Q/E69T/G107R/I218V/K202T/L105A/L119W/N104I/Q94N/R106L/R155S/R180L/S101N/S121T/S35A/S48A/V306I/V36M/Y195H/Y91F); type: binding
HLA A*6802 = HLA A*6802 (Homo sapiens, UniProt P04439, A269V/D140Y/D185E/E176V/E277Q/E87N/F33Y/G231S/I121R/I166T/I218V/L180W/L300P/L318F/N151K/P208A/P217A/Q86R/R138H/R169H/S129P/T345S/V36M); type: binding
H-2 D^d = H-2 D^d (Mus musculus, UniProt P01900); type: binding
Sequence of H-2 D^d (P01900 whole entry, looked up): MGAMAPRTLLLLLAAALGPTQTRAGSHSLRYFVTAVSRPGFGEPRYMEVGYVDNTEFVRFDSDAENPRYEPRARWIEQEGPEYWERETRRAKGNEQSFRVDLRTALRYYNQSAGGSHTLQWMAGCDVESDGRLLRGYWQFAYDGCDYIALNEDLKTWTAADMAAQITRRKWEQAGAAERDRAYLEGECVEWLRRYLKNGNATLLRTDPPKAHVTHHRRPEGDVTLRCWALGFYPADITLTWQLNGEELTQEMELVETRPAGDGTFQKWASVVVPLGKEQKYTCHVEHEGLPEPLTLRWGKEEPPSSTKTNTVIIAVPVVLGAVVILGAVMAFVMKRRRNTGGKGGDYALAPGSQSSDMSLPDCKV

HLA A*3001 = HLA A*3001 (Homo sapiens, UniProt P04439, D140H/D185E/E176W/F33S/G80R/H175R/K168Q/R138E/R41S); assay: biochemical; type: binding
HLA B*5802 = HLA B*5802 (Homo sapiens, UniProt P01889, A329T/C349S/D201E/D98Y/E176V/E187L/E204Q/E69T/G107R/I218V/I90N/K202T/L105A/N104I/N87E/Q89R/Q94S/R106L/R155S/R180L/R86G/S101N/S121W/S35A/S48A/V127L/V306I/V36M/Y140S/Y91M); type: binding

Sequence of H-2 D^b (P01887 21-119): as the sequence (P01887 21-119) above
Sequence of H-2 D^b (P01899 25-362): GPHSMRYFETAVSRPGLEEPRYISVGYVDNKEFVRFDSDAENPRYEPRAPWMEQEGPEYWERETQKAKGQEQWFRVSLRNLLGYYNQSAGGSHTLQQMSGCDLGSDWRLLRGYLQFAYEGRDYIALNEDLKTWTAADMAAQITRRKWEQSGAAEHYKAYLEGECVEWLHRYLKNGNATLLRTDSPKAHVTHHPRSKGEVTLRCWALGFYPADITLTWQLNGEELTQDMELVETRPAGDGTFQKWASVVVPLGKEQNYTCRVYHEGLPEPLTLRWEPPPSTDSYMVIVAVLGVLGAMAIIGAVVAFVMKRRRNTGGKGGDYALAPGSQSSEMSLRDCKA

With EXXXXXXXX [3064.0004] the “Normalized average relative binding affinity (ARB), HLA B*0801” value (HLA B*0801) was 0.36, the “Normalized average relative binding affinity (ARB), H-2 Db” value (H-2 D^b) was 0.030 and the “Normalized average relative binding affinity (ARB), HLA A*3201” value (HLA A*3201) was 0.12. For the same sequence, the “Normalized average relative binding affinity (ARB), H-2 Kk” value (H-2 K^k) was 0.77, the “Normalized average relative binding affinity (ARB), HLA A*0201” value (HLA A*0201) was 0.015 and the “Normalized average relative binding affinity (ARB), HLA B*5801” value (HLA B*5801) was 0.032. For the same sequence, the “Normalized average relative binding affinity (ARB), HLA B*1501” value (HLA B*1501) was 0.16, the “Normalized average relative binding affinity (ARB), HLA B*5301” value (HLA B*5301) was 0.021 and the “Normalized average relative binding affinity (ARB), HLA B*3501” value (HLA B*3501) was 0.085. For the same sequence, the “Normalized average relative binding affinity (ARB), HLA B*2705” value (HLA B*2705) was 0.089, the “Normalized average relative binding affinity (ARB), HLA B*1503” value (HLA B*1503) was 0.090 and the “Normalized average relative binding affinity (ARB), HLA B*5401” value (HLA B*5401) was 0.040. The “Normalized average relative binding affinity (ARB), HLA B*0702” value (HLA B*0702) was 0.069, the “Normalized average relative binding affinity (ARB), HLA B*5101” value (HLA B*5101) was 0.10 and the “Normalized average relative binding affinity (ARB), HLA A*6802” value (HLA A*6802) was 1.0. For the same sequence, the “Normalized average relative binding affinity (ARB), H-2 Dd” value (H-2 D^d) was 0.16, the “Normalized average relative binding affinity (ARB), HLA A*3001” value (HLA A*3001) was 0.018 and the “Normalized average relative binding affinity (ARB), HLA B*5802” value (HLA B*5802) was 0.066.
LXXXXXXXX [3064.0010] was tested, and the “Normalized average relative binding affinity (ARB), HLA B*0801” value (HLA B*0801) was 0.22, the “Normalized average relative binding affinity (ARB), H-2 Db” value (H-2 D^b) was 0.20 and the “Normalized average relative binding affinity (ARB), HLA A*3201” value (HLA A*3201) was 0.48. For the same sequence, the “Normalized average relative binding affinity (ARB), H-2 Kk” value (H-2 K^k) was 0.49, the “Normalized average relative binding affinity (ARB), HLA A*0201” value (HLA A*0201) was 0.054 and the “Normalized average relative binding affinity (ARB), HLA B*5801” value (HLA B*5801) was 0.53. The “Normalized average relative binding affinity (ARB), HLA B*1501” value (HLA B*1501) was 0.61, the “Normalized average relative binding affinity (ARB), HLA B*5301” value (HLA B*5301) was 0.14 and the “Normalized average relative binding affinity (ARB), HLA B*3501” value (HLA B*3501) was 0.31. The “Normalized average relative binding affinity (ARB), HLA B*2705” value (HLA B*2705) was 0.26, the “Normalized average relative binding affinity (ARB), HLA B*1503” value (HLA B*1503) was 0.52 and the “Normalized average relative binding affinity (ARB), HLA B*5401” value (HLA B*5401) was 0.19. The “Normalized average relative binding affinity (ARB), HLA B*0702” value (HLA B*0702) was 0.23, the “Normalized average relative binding affinity (ARB), HLA B*5101” value (HLA B*5101) was 0.41 and the “Normalized average relative binding affinity (ARB), HLA A*6802” value (HLA A*6802) was 0.071. The “Normalized average relative binding affinity (ARB), H-2 Dd” value (H-2 D^d) was 0.29, the “Normalized average relative binding affinity (ARB), HLA A*3001” value (HLA A*3001) was 0.081 and the “Normalized average relative binding affinity (ARB), HLA B*5802” value (HLA B*5802) was 0.044.
For XXXDXXXXX [3064.0063], the “Normalized average relative binding affinity (ARB), HLA B*0801” value (HLA B*0801) was 0.072, the “Normalized average relative binding affinity (ARB), H-2 Db” value (H-2 D^b) was 0.072 and the “Normalized average relative binding affinity (ARB), HLA A*3201” value (HLA A*3201) was 0.14. For the same sequence, the “Normalized average relative binding affinity (ARB), H-2 Kk” value (H-2 K^k) was 0.46, the “Normalized average relative binding affinity (ARB), HLA A*0201” value (HLA A*0201) was 0.91 and the “Normalized average relative binding affinity (ARB), HLA B*5801” value (HLA B*5801) was 0.17. For the same sequence, the “Normalized average relative binding affinity (ARB), HLA B*1501” value (HLA B*1501) was 0.30, the “Normalized average relative binding affinity (ARB), HLA B*5301” value (HLA B*5301) was 0.26 and the “Normalized average relative binding affinity (ARB), HLA B*3501” value (HLA B*3501) was 0.18. For the same sequence, the “Normalized average relative binding affinity (ARB), HLA B*2705” value (HLA B*2705) was 0.26, the “Normalized average relative binding affinity (ARB), HLA B*1503” value (HLA B*1503) was 0.13 and the “Normalized average relative binding affinity (ARB), HLA B*5401” value (HLA B*5401) was 0.28. The “Normalized average relative binding affinity (ARB), HLA B*0702” value (HLA B*0702) was 0.16, the “Normalized average relative binding affinity (ARB), HLA B*5101” value (HLA B*5101) was 0.74 and the “Normalized average relative binding affinity (ARB), HLA A*6802” value (HLA A*6802) was 0.31. The “Normalized average relative binding affinity (ARB), H-2 Dd” value (H-2 D^d) was 0.30, the “Normalized average relative binding affinity (ARB), HLA A*3001” value (HLA A*3001) was 0.22 and the “Normalized average relative binding affinity (ARB), HLA B*5802” value (HLA B*5802) was 0.069.
XGXXXXXXX [3064.0026] was tested, and the “Normalized average relative binding affinity (ARB), HLA B*0801” value (HLA B*0801) was 0.17, the “Normalized average relative binding affinity (ARB), H-2 Db” value (H-2 D^b) was 0.42 and the “Normalized average relative binding affinity (ARB), HLA A*3201” value (HLA A*3201) was 0.025. The “Normalized average relative binding affinity (ARB), H-2 Kk” value (H-2 K^k) was 0.0063, the “Normalized average relative binding affinity (ARB), HLA A*0201” value (HLA A*0201) was 0.0090 and the “Normalized average relative binding affinity (ARB), HLA B*5801” value (HLA B*5801) was 0.14. The “Normalized average relative binding affinity (ARB), HLA B*1501” value (HLA B*1501) was 0.095, the “Normalized average relative binding affinity (ARB), HLA B*5301” value (HLA B*5301) was 0.022 and the “Normalized average relative binding affinity (ARB), HLA B*3501” value (HLA B*3501) was 0.063. The “Normalized average relative binding affinity (ARB), HLA B*2705” value (HLA B*2705) was 0.0016, the “Normalized average relative binding affinity (ARB), HLA B*1503” value (HLA B*1503) was 0.042 and the “Normalized average relative binding affinity (ARB), HLA B*5401” value (HLA B*5401) was 0.011. For the same sequence, the “Normalized average relative binding affinity (ARB), HLA B*0702” value (HLA B*0702) was 0.0028, the “Normalized average relative binding affinity (ARB), HLA B*5101” value (HLA B*5101) was 0.16 and the “Normalized average relative binding affinity (ARB), HLA A*6802” value (HLA A*6802) was 0.014. For the same sequence, the “Normalized average relative binding affinity (ARB), H-2 Dd” value (H-2 D^d) was 1.0, the “Normalized average relative binding affinity (ARB), HLA A*3001” value (HLA A*3001) was 0.22 and the “Normalized average relative binding affinity (ARB), HLA B*5802” value (HLA B*5802) was 0.077.
